Where a name gives a salt, the structure may show the parent alone. Read-outs that look alike come from different tables or passages of the source.

The test system of one test is ICAM-1. Nature of the test: Effect on the expression of ICAM-1 in human cultured umbilical cord endothelial cells (TNF-stimulated, ELISA). The class given is cell-based. The settings on record: 1 ng/ml TNF, expression with TNF = 100%, without TNF = 0%, read-out: IC50 (50% inhibitory concentration of ICAM-1 expression). As to the method: Effect on the Expression of ICAM-1 in Human Cultured Umbilical Cord Endothelial Cells
Examination was made on the effect on the expression of ICAM-1 which is one of adhesion molecules expressed on the surfaces of cultured endothelia cells. The endotheliall cells were suspended in an MCDB131 medium containing 10% of fetal calf serum and pipetted into a 96-well culture plate (10,000 cells/well). After culturing at 37° C. in the presence of 5% of carbon dioxide for 2 days, 1 ng/ml of a tumor necrosis factor (TNF) and a test compound were added to the 96-well culture plate. After culturing at 37° C. in the presence of 5% of carbon dioxide for 4 hours and then washing with a phosphate buffer once, 0.05% of glutaraldehyde was added thereto. Six minutes thereafter, the plate was washed twice and 1 μg/ml of a mouse antihuman ICAM-1 antibody was added thereto. After allowing to stand for 1 hour, it was washed twice and a peroxidase-labeled sheep antimouse immunoglobulin antibody was added thereto. After allowing to stand for 1 hour, it was washed twice and a color developing substrate for peroxidase (o-phenylenediamine) was added thereto. After allowing to stand at room temperature for 10 minutes, a 1 N solution of sulfuric acid was added thereto. Then the absorbance at 490 nm was measured with the use of an absorptiometer for 96-well plate. The value thus obtained was employed as an indication of the ICAM-1 expression.

In test [1] the test system is Carrageenin-induced Rat Pleurisy. Nature of the test: Effect on carrageenin-induced rat pleurisy. The following applies: Rattus norvegicus, po, 5 h, total cell count in pleural exudate 5 hours after carrageenin, read-out: Inhibitory ratio (%); for inhibition in vivo at 30 mg/kg: dose 30 mg/kg orally 30 minutes before carrageenin. The class given is in vivo. As to the method: Effect on Carrageenin-induced Rat Pleurisy
200 μl of a carrageenin solution (10 mg/ml in physiological saline) was intrathoracically injected into rats. Five hours thereafter, blood of the animals was collected from the abdominal aorta under etherization so as to induce death from blood loss. The exudate was taken up from the thoracic cavity and weighed with a single-pan balance. Further, the exudate was diluted with Turk's solution and the cells were counted by using a counting chamber. Next the total cell count was calculated by multiplying the cell count by the exudate volume. Thus the inhibitory ratio was calculated by taking the total cell count with the administration of carrageenin as 100% and that with the administration of physiological saline as 0%. Each test compound was suspended in a 0.5% solution of methylcellulose and orally administered at a dose of 5 ml/kg 30 minutes before the injection of carrageenin.

The mark [2] stands for this setting: Homo sapiens, Endothelial cell, 4 h.

With `c1cncc(NCc2ccc3c(c2)Nc2nccnc2S3)c1` [Example 901, 8-[N-(Pyridin-3-yl)aminomethyl]-10H-pyrazino[2,3-b][1,4]benzothiazine], the IC50 in the test on ICAM-1 (setting [2]) turned out to be 1800 nM. In addition, the inhibition in vivo at 30 mg/kg in test [1] was determined as 38%.
Turning to `OC(c1cccnc1)c1ccc2c(c1)Nc1nccnc1S2` (stereo not drawn) [Example 1145], the IC50 with ICAM-1 (setting [2]) stood at 770 nM. Also, in test [1] (dose 10 mg/kg orally 30 minutes before carrageenin), the inhibition in vivo at 10 mg/kg turned out to be 29%.
With `NCc1ccc2c(c1)Nc1nccnc1S2` [Example 1241, 8-(Aminomethyl)10H-pyrazino[2,3-b][1,4]benzothiazine hydrochloride], in the test on ICAM-1 (setting [2]), the IC50 is 3600 nM. Moreover, in test [1] (dose 100 mg/kg orally 30 minutes before carrageenin), the inhibition in vivo at 100 mg/kg was 28%.
With `CC(C)(O)c1ncnc2c1ncn2Cc1ccc2c(c1)Nc1nccnc1S2` [Example 1439], the IC50 in the test with ICAM-1 (setting [2]) was 490 nM. Besides, the inhibition in vivo at 30 mg/kg in test [1] was 77%.
Taken in the same sequence, the figures for `N#C/N=C(\N)Cc1ccc2c(c1)Nc1nccnc1S2` [Example 1487, N^2-Cyano-(10H-pyrazino[2,3-b][1,4]benzothiazin-8-yl)acetamidine] were 670 nM and 32%.
As for `O=C(O)CC1C2CCCC1CN(Cc1ccc3c(c1)Nc1nccnc1S3)C2` (stereo not drawn) [Example 1568, (endo,anti)-[3-(10H-Pyrazino[2,3-b][1,4]benzothiazin-8-ylmethyl)-3-azabicyclo[3.3.1]non-9-yl]acetic acid], the IC50 in the test on ICAM-1 (4 hours) worked out at 500 nM. Besides, in test [1], the inhibition in vivo at 30 mg/kg came out at 50%.

For the origin of these results see US6518423B1, “Benzopiperidine derivatives” (Eisai Co., Ltd., priority 1996, dated 2003).
